US12459876B2, “One-step kit-based synthesis of 2-deoxy-2-[18F]fluoro-D-sorbitol” (The Johns Hopkins University, priority 2020, dated 2025)
Like-named read-outs stand apart in the source and are kept apart here.

How the values were obtained:
[1] = system: Enterobacterales
[2] = system: K. pneumoniae; conditions: intravenous; PET 120 minutes post-tracer injection; n=6; Mann Whitney U test
[3] = system: E. coli; conditions: cited from earlier work
[4] = rat, in vivo; cited from earlier work
[5] = human, in vivo; cited from earlier work
[6] = in vivo; cited from earlier work

OC[C@@H](O)[C@@H](O)[C@H](O)[C@@H]([18F])CO [^18F-FDS, 2-deoxy-2-[^18F]fluoro-D-sorbitol]
PET signal outside the site of infection (biodistribution) ([1]; patient with Enterobacter aerogenes cellulitis, MIP): Signal also is noted in the heart (blood pool), liver, kidneys, and the urinary bladder | Monitoring of antimicrobial response by repeat imaging ([1]; patients, repeat imaging after antibiotic treatments): able to monitor antimicrobial response | SUVmean, areas of pneumonia compared to unaffected lung [2]: significantly higher | Detection of therapeutic failures ([3]; MDR, extended-spectrum β-lactamase producing E. coli strains): detect therapeutic failures | Distinction of infection from sterile inflammation ([3]; mouse models): able to distinguish infection from sterile inflammation | Accumulation in the renal cortex [4]: rapid accumulation | Renal uptake [4]: significantly delayed | Accumulation in the renal cortex [5]: rapid ^18F-FDS accumulation in the renal cortex with gradual transition to the parenchyma | Route of clearance [6]: predominantly cleared through the kidneys
